Data as given in patent US11884675B2, “Heterocyclic compounds as triggering receptor expressed on myeloid cells 2 agonists and methods of use” (AMGEN INC., priority 2020, dated 2024).

Target: hTREM2 (Homo sapiens, UniProt Q9NZC2)
Test: TREM2 agonist potency by Syk phosphorylation (AlphaLisa) in HEK293T-hTREM2 cells, used for Examples 306-429
Assay type: cell-based
Parameters: expressed in transfected cells; host or cells: HEK293T (HEK293T-hTREM2 cells)
Conditions: HEK293 Cells
In short: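 HEK293T cells expressing human TREM2 and DAP12, plated 20-24 h before, were exposed to compounds for 45 min at room temperature, then lysed. Phospho-Syk read by AlphaLisa; % activation from a standard curve and EC50 from a four-parameter log(agonist) fit.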

Sequence of hTREM2 (Q9NZC2 19-230): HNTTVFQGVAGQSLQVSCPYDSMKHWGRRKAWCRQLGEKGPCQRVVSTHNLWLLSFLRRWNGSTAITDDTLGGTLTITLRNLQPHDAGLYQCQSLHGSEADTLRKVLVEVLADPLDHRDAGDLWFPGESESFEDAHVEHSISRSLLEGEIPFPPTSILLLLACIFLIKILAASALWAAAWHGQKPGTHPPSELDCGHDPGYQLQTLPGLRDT
Sequence of hTREM2 (O43914 22-113 partner): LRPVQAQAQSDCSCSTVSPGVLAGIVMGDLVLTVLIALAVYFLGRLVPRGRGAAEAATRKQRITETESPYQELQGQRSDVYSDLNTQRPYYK

Structure (SMILES) | EC50 [nM]
COc1cc([C@H]2CN(c3nc(-c4ccc(Cl)cc4F)c4nc(C)c(C)nc4n3)CCO2)ccn1 [Example 335, (S)-4-(4-(4-chloro-2-fluorophenyl)-6,7-dimethylpteridin-2-yl)-2-(2-methoxypyridin-4-yl)morpholine] | ≤ 50
Cc1cnc2c(C34CC(C(F)(F)F)(C3)C4)nc(N3C[C@@H](C)O[C@H](c4cnn(C5CC5)c4)C3)nc2n1 [Example 405, (2R,6R)-2-(1-cyclopropyl-1H-pyrazol-4-yl)-6-methyl-4-(7-methyl-4-(3-(trifluoromethyl)bicyclo[1.1.1]pentan-1-yl)pteridin-2-yl)morpholine] | 50 to 500
Cc1cnc2c(C34CC(C(F)(F)F)(C3)C4)nc([C@@H]3CCO[C@@H](c4cnn(C5CC5)c4)C3)nc2n1 [Example 406, 2-((2R,4R)-2-(1-cyclopropyl-1H-pyrazol-4-yl)tetrahydro-2H-pyran-4-yl)-7-methyl-4-(3-(trifluoromethyl)bicyclo[1.1.1]pentan-1-yl)pteridine] | 500 to 3000
Cc1cnc2c(-c3ccc(F)cc3F)nc(N3CCOC(c4cnn(C5CC5)c4)C3)cc2n1 (stereo not shown) [Example 341, 2-(1-cyclopropyl-1H-pyrazol-4-yl)-4-(5-(2,4-difluorophenyl)-2-methylpyrido[3,4-b]pyrazin-7-yl)morpholine] | ≤ 50
Cc1nc2nc(N3C[C@@H](C)O[C@@H](c4cnn(C5CC5)c4)C3)nc(C34CC(C(F)(F)F)(C3)C4)c2nc1C [Example 411, (2S,6R)-2-(1-cyclopropyl-1H-pyrazol-4-yl)-4-(6,7-dimethyl-4-(3-(trifluoromethyl)bicyclo[1.1.1]pentan-1-yl)pteridin-2-yl)-6-methylmorpholine] | ≤ 50
Cc1cnc2c(-c3ccc(F)cc3F)nc([C@H]3C[C@@H](C)O[C@@H](c4cnn(C5CC5)c4)C3)nc2n1 [Example 415, 2-((2R,4S,6R)-2-(1-cyclopropyl-1H-pyrazol-4-yl)-6-methyltetrahydro-2H-pyran-4-yl)-4-(2,4-difluorophenyl)-7-methylpteridine] | 50 to 500
Cc1cnc2c(-c3ccc(F)cc3F)nc(N3C[C@@H](C)O[C@@H](c4cnn(C5CC5)c4)C3)nc2n1 (racemic) [Example 371, 2-(1-cyclopropyl-1H-pyrazol-4-yl)-4-(4-(2,4-difluorophenyl)-7-methylpteridin-2-yl)-6-methylmorpholine] | ≤ 50
Cc1cnc2c(-c3ccc(F)cc3F)nc(N3C[C@H](C)O[C@@H](c4cnn(C5CC5)c4)C3)nc2n1 (racemic) [Example 370, 2-(1-cyclopropyl-1H-pyrazol-4-yl)-4-(4-(2,4-difluorophenyl)-7-methylpteridin-2-yl)-6-methylmorpholine] | 50 to 500
Cc1nc2cc(N3CCO[C@@H](c4cnn(C5CC5)c4)C3)nc(-c3ccc(Cl)cc3F)c2nc1C [Example 382, (2S)-4-[5-(4-chloro-2-fluoro-phenyl)-2,3-dimethyl-pyrido[3,4-b]pyrazin-7-yl]-2-(1-cyclopropylpyrazol-4-yl)morpholine] | ≤ 50
Cc1cc([C@H]2C[C@@H](c3nc(-c4ccc(Cl)cc4F)c4ccc(C)nc4n3)CCO2)ccn1 (racemic) [Example 325, 4-(4-chloro-2-fluorophenyl)-7-methyl-2-(2-(2-methylpyridin-4-yl)tetrahydro-2H-pyran-4-yl)pyrido[2,3-d]pyrimidine] | ≤ 50
Cc1cc([C@@H]2CN(c3nc(C45CC(C(F)(F)F)(C4)C5)c4ncc(C)nc4n3)CCO2)ccn1 [Example 353, (R)-4-(7-methyl-4-(3-(trifluoromethyl)bicyclo[1.1.1]pentan-1-yl)pteridin-2-yl)-2-(2-methylpyridin-4-yl)morpholine] | 50 to 500
Cc1cnc2c(-c3ccc(C(F)(F)F)nc3)nc(N3CCOC(c4cnn(C5CC5)c4)C3)cc2n1 (stereo not shown) [Example 340, 2-(1-cyclopropyl-1H-pyrazol-4-yl)-4-(2-methyl-5-(6-(trifluoromethyl)pyridin-3-yl)pyrido[3,4-b]pyrazin-7-yl)morpholine] | 50 to 500
Cc1nc2cc(N3C[C@H](C)O[C@@H](c4cnn(C5CC5)c4)C3)nc(-c3ccc(F)cc3F)c2nc1C (racemic) [Example 357, 2-(1-cyclopropyl-1H-pyrazol-4-yl)-4-(5-(2,4-difluorophenyl)-2,3-dimethylpyrido[3,4-b]pyrazin-7-yl)-6-methylmorpholine] | ≤ 50

Now from value to molecule:

EC50 [nM] | Structure (SMILES)
≤ 50 | Cc1nc2nc(N3CC(C)OC(c4cnn(C5CC5)c4)C3)nc(C34CC(C(F)(F)F)(C3)C4)c2nc1C (stereo not shown) [Example 356, 2-(1-cyclopropyl-1H-pyrazol-4-yl)-4-(6,7-dimethyl-4-(3-(trifluoromethyl)bicyclo[1.1.1]pentan-1-yl)pteridin-2-yl)-6-methylmorpholine]
50 to 500 | Cc1nc2cc(N3CCO[C@H](c4cnn(C5CC5)c4)C3)nc(-c3ccc(Cl)cc3F)c2nc1C [Example 383, (2R)-4-[5-(4-chloro-2-fluoro-phenyl)-2,3-dimethyl-pyrido[3,4-b]pyrazin-7-yl]-2-(1-cyclopropylpyrazol-4-yl)morpholine]
≤ 50 | Cc1nc2nc(N3C[C@H](C)O[C@@H](c4cnn(C5CC5)c4)C3)nc(C34CC(C(F)(F)F)(C3)C4)c2nc1C [Example 408, (2S,6S)-2-(1-cyclopropyl-1H-pyrazol-4-yl)-4-(6,7-dimethyl-4-(3-(trifluoromethyl)bicyclo[1.1.1]pentan-1-yl)pteridin-2-yl)-6-methylmorpholine]
≤ 50 | Cc1cc([C@@H]2C[C@H](c3nc(-c4cc(F)c(Cl)c(F)c4)c4nc(C)c(C)nc4n3)CCO2)ccn1 (racemic) [Example 389, 4-(4-chloro-3,5-difluoro-phenyl)-6,7-dimethyl-2-[2-(2-methyl-4-pyridyl)tetrahydropyran-4-yl]pteridine]
500 to 3000 | Cc1cc([C@@H]2CN(c3cc4nc(C)cnc4c(-c4ccc(F)cc4F)n3)CCO2)ccn1 [Example 333, (R)-4-(5-(2,4-difluorophenyl)-2-methylpyrido[3,4-b]pyrazin-7-yl)-2-(2-methylpyridin-4-yl)morpholine]
≤ 50 | Cc1nc2nc([C@H]3CCO[C@@H](c4cnn(C5CC5)c4)C3)nc(-c3ccc(C(F)(F)F)cc3F)c2nc1C [Example 413, 2-((2R,4S)-2-(1-cyclopropyl-1H-pyrazol-4-yl)tetrahydro-2H-pyran-4-yl)-4-(2-fluoro-4-(trifluoromethyl)phenyl)-6,7-dimethylpteridine]
≤ 50 | Cc1nc2cc([C@H]3CCO[C@@H](c4cnn(C5CC5)c4)C3)nc(C34CC(C(F)(F)F)(C3)C4)c2nc1C (mixture of isomers) [Example 392, 2,3-dimethyl-7-[2-(1-cyclopropylpyrazol-4-yl)tetrahydropyran-4-yl]-5-[3-(trifluoromethyl)-1-bicyclo[1.1.1]pentanyl]pyrido[3,4-b]pyrazine]
≤ 50 | Cc1nc2cc([C@H]3C[C@@H](C)O[C@@H](c4cnn(C5CC5)c4)C3)nc(-c3ccc(F)cc3F)c2nc1C [Example 380, 7-[(2R,4S,6R)-2-(1-cyclopropylpyrazol-4-yl)-6-methyl-tetrahydropyran-4-yl]-5-(2,4-difluorophenyl)-2,3-dimethyl-pyrido[3,4-b]pyrazine]
≤ 50 | [2H]C([2H])([2H])c1nc2nc([C@H]3CCO[C@@H](c4ccnc(C)c4)C3)nc(-c3ccc(Cl)c(F)c3F)c2nc1C([2H])([2H])[2H] (racemic) [Example 395, 4-(4-chloro-2,3-difluoro-phenyl)-2-[2-(2-methyl-4-pyridyl)tetrahydropyran-4-yl]-6,7-bis(trideuteriomethyl)pteridine]
